DC50 data for 19 compounds are collected here from patent US20250388565A1, “ESTROGEN RECEPTOR ALPHA DEGRADERS AND METHODS OF USE THEREOF” (Relay Therapeutics, Inc., priority 2022, published 2025).

This assay deals with T1, ERα protein (HiBiT-tagged) in ESR1_HiBiT KI MCF7 cells (Homo sapiens, UniProt P03372).
T1 sequence (P03372 1-595): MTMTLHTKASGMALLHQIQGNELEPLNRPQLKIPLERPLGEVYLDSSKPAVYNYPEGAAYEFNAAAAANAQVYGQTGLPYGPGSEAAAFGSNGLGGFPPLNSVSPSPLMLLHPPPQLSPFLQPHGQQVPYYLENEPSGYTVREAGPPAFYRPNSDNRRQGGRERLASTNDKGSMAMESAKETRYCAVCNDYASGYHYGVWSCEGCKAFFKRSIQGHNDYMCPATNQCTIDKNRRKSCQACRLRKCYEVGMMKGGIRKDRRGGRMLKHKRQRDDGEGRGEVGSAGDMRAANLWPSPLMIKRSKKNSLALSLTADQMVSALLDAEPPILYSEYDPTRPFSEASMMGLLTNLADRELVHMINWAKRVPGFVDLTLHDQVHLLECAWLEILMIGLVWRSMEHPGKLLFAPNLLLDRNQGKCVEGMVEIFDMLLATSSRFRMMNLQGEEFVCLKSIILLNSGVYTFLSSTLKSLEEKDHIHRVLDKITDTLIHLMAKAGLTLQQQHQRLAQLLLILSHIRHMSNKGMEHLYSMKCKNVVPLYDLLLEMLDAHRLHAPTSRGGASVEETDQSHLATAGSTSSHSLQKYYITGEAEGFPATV
Kind of assay: Nano Glo HiBiT Lytic Degradation Assay. As to conditions: 6 hours with compound, 14-point dose response 1:3, bell-shape curve fit, half-maximal effect of first Hill model, read-out: MCF7 ESR1 HiBiT - (DC50). It counts as cell-based. In short, it runs like this:
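HiBiT-tagged endogenous ERα remaining in MCF7 knock-in cells was quantified by lytic luminescence after a 6 h treatment. DC50 values derive from a bell-shaped curve, taken at the first Hill component's half-maximal effect.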
In general terms: The HiBiT peptide binds its large partner to form an active luciferase.

SMILES strings stand for the structures.

In the case of `[2H]c1cc2c(c([2H])c1O)C([2H])C[C@H](c1ccccc1)[C@@H]2c1ccc(N2CCC(CN3CCN(c4ccc5c(c4)CN([C@H]4CCC(=O)NC4=O)C5=O)CC3)CC2)cn1` (stereo partly shown) [Compound I-339], the DC50 (in general, the concentration giving 50% degradation) stood at 0.31 nM.
For the compound `C[C@]1(c2ccccc2)CCc2cc(O)ccc2[C@@H]1c1ccc(N2CCC(CN3CCN(c4ccc5c(c4)CN([C@H]4CCC(=O)NC4=O)C5=O)CC3)CC2)cc1` [Compound I-344, (S)-3-(5-(4-((1-(4-((1R,2S)-6-hydroxy-2-methyl-2-phenyl-1,2,3,4-tetrahydronaphthalen-1-yl)phenyl)piperidin-4-yl)methyl)piperazin-1-yl)-1-oxoisoindolin-2-yl)piperidine-2,6-dione], the DC50 came to 84 nM.
In the case of `O=C1CC[C@H](N2Cc3cc(N4CCN(CC5CCN(c6ccc([C@H]7c8ccc(O)cc8CO[C@H]7c7ccc(F)cc7)cc6)CC5)CC4)ccc3C2=O)C(=O)N1` [Compound I-346, (S)-3-(5-(4-((1-(4-((3R,4S)-3-(4-fluorophenyl)-7-hydroxyisochroman-4-yl)phenyl)piperidin-4-yl)methyl)piperazin-1-yl)-1-oxoisoindolin-2-yl)piperidine-2,6-dione] it was ≥ 10000 nM; in that of `O=C1CC[C@H](N2Cc3cc(N4CCN(CC5CCN(c6ccc([C@@H]7c8ccc(O)cc8CO[C@@H]7c7ccccc7F)cc6)CC5)CC4)ccc3C2=O)C(=O)N1` [Compound I-347, (S)-3-(5-(4-((1-(4-((3S,4R)-3-(2-fluorophenyl)-7-hydroxyisochroman-4-yl)phenyl)piperidin-4-yl)methyl)piperazin-1-yl)-1-oxoisoindolin-2-yl)piperidine-2,6-dione], 0.18 nM; in that of `O=C1CC[C@H](N2Cc3cc(N4CCN(CC5CCN(c6ccc([C@H]7c8ccc(O)cc8CO[C@H]7c7ccccc7F)cc6)CC5)CC4)ccc3C2=O)C(=O)N1` [Compound I-348, (S)-3-(5-(4-((1-(4-((3R,4S)-3-(2-fluorophenyl)-7-hydroxyisochroman-4-yl)phenyl)piperidin-4-yl)methyl)piperazin-1-yl)-1-oxoisoindolin-2-yl)piperidine-2,6-dione], ≥ 10000 nM.
Turning to `O=C1CC[C@H](N2Cc3cc(N4CCN(CC5CCN(c6ccc([C@@H]7c8ccc(O)cc8CO[C@@H]7c7ccc(C(F)(F)F)cc7)cc6)CC5)CC4)ccc3C2=O)C(=O)N1` [Compound I-349], the DC50 was determined as 0.39 nM.
As for `O=C1CC[C@H](N2Cc3cc(N4CCN(CC5CCN(c6ccc([C@H]7c8ccc(O)cc8CO[C@H]7c7ccc(C(F)(F)F)cc7)cc6)CC5)CC4)ccc3C2=O)C(=O)N1` [Compound I-350, (S)-3-(5-(4-((1-(4-((3R,4S)-7-hydroxy-3-(4-(trifluoromethyl)phenyl)isochroman-4-yl)phenyl)piperidin-4-yl)methyl)piperazin-1-yl)-1-oxoisoindolin-2-yl)piperidine-2,6-dione], the figure is 20 nM; as for `CC(C)c1ccccc1[C@H]1OCc2cc(O)ccc2[C@H]1c1ccc(N2CCC(CN3CCN(c4ccc5c(c4)CN([C@H]4CCC(=O)NC4=O)C5=O)CC3)CC2)cc1` [Compound I-351, (S)-3-(5-(4-((1-(4-((3S,4R)-7-hydroxy-3-(2-isopropylphenyl)isochroman-4-yl)phenyl)piperidin-4-yl)methyl)piperazin-1-yl)-1-oxoisoindolin-2-yl)piperidine-2,6-dione], 0.2 nM; as for `CC(C)c1ccccc1[C@@H]1OCc2cc(O)ccc2[C@@H]1c1ccc(N2CCC(CN3CCN(c4ccc5c(c4)CN([C@H]4CCC(=O)NC4=O)C5=O)CC3)CC2)cc1` [Compound I-352, (S)-3-(5-(4-((1-(4-((3R,4S)-7-hydroxy-3-(2-isopropylphenyl)isochroman-4-yl)phenyl)piperidin-4-yl)methyl)piperazin-1-yl)-1-oxoisoindolin-2-yl)piperidine-2,6-dione], 17 nM.
Regarding `Cc1ccc([C@H]2OCc3cc(O)ccc3[C@H]2c2ccc(N3CCC(CN4CCN(c5ccc6c(c5)CN([C@H]5CCC(=O)NC5=O)C6=O)CC4)CC3)cc2)cc1` [Compound I-354, (S)-3-(5-(4-((1-(4-((3S,4R)-7-hydroxy-3-(p-tolyl)isochroman-4-yl)phenyl)piperidin-4-yl)methyl)piperazin-1-yl)-1-oxoisoindolin-2-yl)piperidine-2,6-dione], the half-maximal degradation concentration (DC50) is 0.3 nM.
Turning to `O=C1CC[C@H](N2Cc3cc(N4CCN(CC5CCN(c6ccc([C@H]7c8ccc(O)cc8CO[C@H]7c7cccc(OC(F)(F)F)c7)cc6)CC5)CC4)ccc3C2=O)C(=O)N1` [Compound I-361, (S)-3-(5-(4-((1-(4-((3R,4S)-7-hydroxy-3-(3-(trifluoromethoxy)phenyl)isochroman-4-yl)phenyl)piperidin-4-yl)methyl)piperazin-1-yl)-1-oxoisoindolin-2-yl)piperidine-2,6-dione], the half-maximal degradation concentration (DC50) is ≥ 10000 nM.
As for `O=C1CC[C@H](N2Cc3cc(N4CCN(CC5CCN(c6ccc([C@@H]7c8ccc(O)cc8CO[C@@H]7c7cccc(OC(F)(F)F)c7)cc6)CC5)CC4)ccc3C2=O)C(=O)N1` [Compound I-362, (S)-3-(5-(4-((1-(4-((3S,4R)-7-hydroxy-3-(3-(trifluoromethoxy)phenyl)isochroman-4-yl)phenyl)piperidin-4-yl)methyl)piperazin-1-yl)-1-oxoisoindolin-2-yl)piperidine-2,6-dione], the figure is 1 nM; as for `O=C1CC[C@H](N2Cc3cc(N4CCN(CC5CCN(c6ccc([C@@H]7c8ccc(O)cc8CO[C@@H]7c7ccc8c(c7)CCC8)cc6)CC5)CC4)ccc3C2=O)C(=O)N1` [Compound I-365, (S)-3-(5-(4-((1-(4-((3S,4R)-3-(2,3-dihydro-1H-inden-5-yl)-7-hydroxyisochroman-4-yl)phenyl)piperidin-4-yl)methyl)piperazin-1-yl)-1-oxoisoindolin-2-yl)piperidine-2,6-dione], 0.24 nM; as for `O=C1CC[C@H](N2Cc3cc(N4CCN(CC5CCN(c6ccc([C@H]7c8ccc(O)cc8CO[C@H]7c7ccc8c(c7)CCC8)cc6)CC5)CC4)ccc3C2=O)C(=O)N1` [Compound I-366, (S)-3-(5-(4-((1-(4-((3R,4S)-3-(2,3-dihydro-1H-inden-5-yl)-7-hydroxyisochroman-4-yl)phenyl)piperidin-4-yl)methyl)piperazin-1-yl)-1-oxoisoindolin-2-yl)piperidine-2,6-dione], ≥ 10000 nM.
Take `Cc1cc(F)c([C@H]2OCc3cc(O)ccc3[C@H]2c2ccc(N3CCC(CN4CCN(c5ccc6c(c5)CN([C@H]5CCC(=O)NC5=O)C6=O)CC4)CC3)cc2)cc1F` [Compound I-369, (S)-3-(5-(4-((1-(4-((3S,4R)-3-(2,5-difluoro-4-methylphenyl)-7-hydroxyisochroman-4-yl)phenyl)piperidin-4-yl)methyl)piperazin-1-yl)-1-oxoisoindolin-2-yl)piperidine-2,6-dione]: the half-maximal degradation concentration (DC50) worked out at 0.34 nM.
As for `Cc1cc(F)c([C@@H]2OCc3cc(O)ccc3[C@@H]2c2ccc(N3CCC(CN4CCN(c5ccc6c(c5)CN([C@H]5CCC(=O)NC5=O)C6=O)CC4)CC3)cc2)cc1F` [Compound I-370, (S)-3-(5-(4-((1-(4-((3R,4S)-3-(2,5-difluoro-4-methylphenyl)-7-hydroxyisochroman-4-yl)phenyl)piperidin-4-yl)methyl)piperazin-1-yl)-1-oxoisoindolin-2-yl)piperidine-2,6-dione], the DC50 was 3300 nM.
With `Cc1cc(F)ccc1[C@H]1OCc2cc(O)ccc2[C@H]1c1ccc(N2CCC(CN3CCN(c4ccc5c(c4)CN([C@H]4CCC(=O)NC4=O)C5=O)CC3)CC2)cc1` [Compound I-371, (S)-3-(5-(4-((1-(4-((3S,4R)-3-(4-fluoro-2-methylphenyl)-7-hydroxyisochroman-4-yl)phenyl)piperidin-4-yl)methyl)piperazin-1-yl)-1-oxoisoindolin-2-yl)piperidine-2,6-dione], the 50% degradation concentration (DC50) came out at 0.17 nM.
As for `Cc1cc(F)ccc1[C@@H]1OCc2cc(O)ccc2[C@@H]1c1ccc(N2CCC(CN3CCN(c4ccc5c(c4)CN([C@H]4CCC(=O)NC4=O)C5=O)CC3)CC2)cc1` [Compound I-372, (S)-3-(5-(4-((1-(4-((3R,4S)-3-(4-fluoro-2-methylphenyl)-7-hydroxyisochroman-4-yl)phenyl)piperidin-4-yl)methyl)piperazin-1-yl)-1-oxoisoindolin-2-yl)piperidine-2,6-dione], the DC50 was determined as 27 nM.
As for `COc1cccc([C@H]2OCc3cc(O)ccc3[C@H]2c2ccc(N3CCC(CN4CCN(c5ccc6c(c5)CN([C@H]5CCC(=O)NC5=O)C6=O)CC4)CC3)cc2)c1` [Compound I-373, (S)-3-(5-(4-((1-(4-((3S,4R)-7-hydroxy-3-(3-methoxyphenyl)isochroman-4-yl)phenyl)piperidin-4-yl)methyl)piperazin-1-yl)-1-oxoisoindolin-2-yl)piperidine-2,6-dione], the figure is 0.78 nM.
